# Like-named read-outs stand apart in the source and are kept apart here.
# What was measured:
# Format in all cases: in vivo
# [1] = test system: Okra Aphids; assay: Trials of Flonicamid and Orthosilicic acid on controlling Okra Aphids (Example 1); settings: doses gm/ha: OSA + Flonicamid 625 + 50, Flonicamid 75, OSA 1250
# Method: Trials were conducted to test the efficacy of the combination of Flonicamid and Orthosilicic acid on controlling Okra Aphids at different dosages.
# [2] = test system: Corn FAW (Spodoptera frugiperda); settings: for Percent control (%) A01: A01 = 1 day after first spray; for Percent control (%) A14: A14 = 14 days after 1st spray; for Percent control (%) B03: B03 = 3 days after 2nd spray; for Percent control (%) B07: B07 (after 2nd spray); for Percent control (%) B10: B10 (after 2nd spray); for Percent control (%) B21: B21 (after 2nd spray)
# Description: Application method: Two applications (application A and B) within an interval of 14 days. A01=1 day after first spray, A14=14 days after 1st spray, B03=3 days after 2nd spray.
# [3] = test system: Okra Aphids (Aphis gossypii); settings: for Percent control (%) of Okra Aphids, Nymphs + Adults, A01: A01 = 1 day after first spray; for Percent control (%) of Okra Aphids, Nymphs + Adults, B03: B03 = 3 days after 2nd spray; for Percent control (%) of Okra Aphids, Nymphs + Adults, B07: B07 (after 2nd spray); for Percent control (%) of Okra Aphids, Nymphs + Adults, B10: B10 (after 2nd spray); for Percent control (%) of Okra Aphids, Nymphs + Adults, C03: C03 = 3 days after third spray; for Percent control (%) of Okra Aphids, Nymphs + Adults, C10: C10 (after third spray)
# Description: (§1) In this evaluation, feeding damage & insect population on Okra Leaves before and after sprays is averaged and analyzed for the test of significance. Application method: Three applications (application A, B and C) within an interval of 14 days.
# [4] = test system: Okra Jassids (Amrasca bigutulla bigutulla); settings: for Percent control (%) of Okra Jassids, Nymphs + Adults, A01: A01 = 1 day after first spray; for Percent control (%) of Okra Jassids, Nymphs + Adults, A10: A10 (after 1st spray); for Percent control (%) of Okra Jassids, Nymphs + Adults, B03: B03 = 3 days after 2nd spray; for Percent control (%) of Okra Jassids, Nymphs + Adults, B07: B07 (after 2nd spray); for Percent control (%) of Okra Jassids, Nymphs + Adults, B10: B10 (after 2nd spray); for Percent control (%) of Okra Jassids, Nymphs + Adults, B14: B14 (after 2nd spray); for Percent control (%) of Okra Jassids, Nymphs + Adults, C03: C03 = 3 days after third spray; for Percent control (%) of Okra Jassids, Nymphs + Adults, C10: C10 (after third spray)
# Description: as §1
# [5] = test system: Okra Mites; assay: Trials on controlling Okra Mites post 2nd and 3rd application (Example 2); settings: doses gm/ha: OSA 625 + Flonicamid 50 / Acetamipirid 50 / Lancer Gold 650, solo OSA 1250, Flonicamid 75, Acetamipirid 50, Lancer gold 650
# Method: Trials were conducted to test the efficacy of the combination of Flonicamid and Orthosilicic acid on controlling Okra Mites at different dosages post 2nd and 3rd application.
# [6] = 25% reduced dose of insecticide, gm a.i./ha: OSA 25, CTPR 22.5, Acephate 730, Novaluron 56, Novaluron+Lambda cyhalothrin 67.5, Novaluron+Emamectin 93.5
# [7] = doses gm a.i./ha: OSA 25, CTPR 30, Acephate 970, Novaluron 75, Novaluron+Lambda cyhalothrin 90, Novaluron+Emamectin 125
# [8] = doses gm a.i./ha: OSA 25, Flonicamid 100, Acephate+Imidacloprid 520, Flonicamid+Fipronil 100+50, Imidacloprid 24.5, Acetamiprid 15
# [9] = reduced insecticide dose, gm a.i./ha: OSA 25, Flonicamid (Ulala) 75, Acephate+Imidacloprid 390, Flonicamid+Fipronil 75+37.5, Imidacloprid 18.3, Acetamiprid 11.2
# [10] = 25% reduced dose rate, gm a.i./ha: OSA 25, Flonicamid 75, Acephate+Imidacloprid 390, Flonicamid+Fipronil 75+37.5, Imidacloprid 18.3, Acetamiprid 11.2
substance,measurement,setting,value
orthosilicic acid [OSA],Percent control B01,[1]; B01,29.6%
same,Percent control C-01,[1]; C-01,23.3%
same,Percent control C-10,[1]; C-10,26.7%
same,Percent control Mean,"[1]; Mean of B01, C-01, C-10",26.53%
same,Percent control (%) A01,[2]; [6],29.3%
same,Percent control (%) A01,[2]; [7],32.4%
same,Percent control (%) A14,[2]; [6],44.8%
same,Percent control (%) A14,[2]; [7],47.4%
same,Percent control (%) B03,[2]; [6],51.9%
same,Percent control (%) B03,[2]; [7],53.7%
same,Percent control (%) B07,[2]; [6],61.4%
same,Percent control (%) B07,[2]; [7],58.6%
same,Percent control (%) B10,[2]; [6],57.9%
same,Percent control (%) B10,[2]; [7],60.6%
same,Percent control (%) B21,[2]; [6],56.5%
same,Percent control (%) B21,[2]; [7],59.0%
same,"Percent control (%) of Okra Aphids, Nymphs + Adults, A01",[3]; [8],32.3%
same,"Percent control (%) of Okra Aphids, Nymphs + Adults, A01",[3]; [9],30.2%
same,"Percent control (%) of Okra Aphids, Nymphs + Adults, A10","[3]; A10 (after 1st spray), doses gm a.i./ha: OSA 25, Flonicamid 100, Acephate+Imidacloprid 520, Flonicamid+Fipronil 100+50, Imidacloprid 24.5, Acetamiprid 15",48.5%
same,"Percent control (%) of Okra Aphids, Nymphs + Adults, A14","[3]; A14 = 14 days after 1st spray, reduced insecticide dose, gm a.i./ha: OSA 25, Flonicamid (Ulala) 75, Acephate+Imidacloprid 390, Flonicamid+Fipronil 75+37.5, Imidacloprid 18.3, Acetamiprid 11.2",47%
same,"Percent control (%) of Okra Aphids, Nymphs + Adults, B03",[3]; [8],52%
same,"Percent control (%) of Okra Aphids, Nymphs + Adults, B03",[3]; [9],55%
same,"Percent control (%) of Okra Aphids, Nymphs + Adults, B07",[3]; [8],56%
same,"Percent control (%) of Okra Aphids, Nymphs + Adults, B07",[3]; [9],57.7%
same,"Percent control (%) of Okra Aphids, Nymphs + Adults, B10",[3]; [8],56.1%
same,"Percent control (%) of Okra Aphids, Nymphs + Adults, B10",[3]; [9],55.7%
same,"Percent control (%) of Okra Aphids, Nymphs + Adults, C03",[3]; [8],57%
same,"Percent control (%) of Okra Aphids, Nymphs + Adults, C03",[3]; [9],59.4%
same,"Percent control (%) of Okra Aphids, Nymphs + Adults, C10",[3]; [8],59.7%
same,"Percent control (%) of Okra Aphids, Nymphs + Adults, C10",[3]; [9],60.3%
same,"Percent control (%) of Okra Jassids, Nymphs + Adults, A01",[4]; [10],27.9%
same,"Percent control (%) of Okra Jassids, Nymphs + Adults, A01",[4]; [8],25.3%
same,"Percent control (%) of Okra Jassids, Nymphs + Adults, A10",[4]; [10],37%
same,"Percent control (%) of Okra Jassids, Nymphs + Adults, A10",[4]; [8],35.8%
same,"Percent control (%) of Okra Jassids, Nymphs + Adults, B03",[4]; [10],40.9%
same,"Percent control (%) of Okra Jassids, Nymphs + Adults, B03",[4]; [8],42.7%
same,"Percent control (%) of Okra Jassids, Nymphs + Adults, B07",[4]; [10],47.9%
same,"Percent control (%) of Okra Jassids, Nymphs + Adults, B07",[4]; [8],46.5%
same,"Percent control (%) of Okra Jassids, Nymphs + Adults, B10",[4]; [10],48.6%
same,"Percent control (%) of Okra Jassids, Nymphs + Adults, B10",[4]; [8],45.5%
same,"Percent control (%) of Okra Jassids, Nymphs + Adults, B14",[4]; [10],43%
same,"Percent control (%) of Okra Jassids, Nymphs + Adults, B14",[4]; [8],44.7%
same,"Percent control (%) of Okra Jassids, Nymphs + Adults, C03",[4]; [10],45.5%
same,"Percent control (%) of Okra Jassids, Nymphs + Adults, C03",[4]; [8],46.9%
same,"Percent control (%) of Okra Jassids, Nymphs + Adults, C10",[4]; [10],49.1%
same,"Percent control (%) of Okra Jassids, Nymphs + Adults, C10",[4]; [8],48.6%
same,Percent control B07,[5]; B07,10%
same,Percent control C-01,[5]; C-01,19.3%
same,Percent control C-10,[5]; C-10,11.7%
same,Percent control Mean,"[5]; Mean of B07, C-01, C-10",13.66%

# Source: patent publication US20220322673A1, “Novel Agrochemical Combinations” (UPL LIMITED, priority 2019, published 2022)
